Source: patent US20050004172A1, “Solid state forms of 5-(difluoro-methoxy)-2-((3,4-dimethoxy-2-pyridinyl)-methyl) sulfinyl]-1H-benzimidazole sodium aquo complexes” (Pliva-Istrazivacki Institut d.o.o., priority 2003, published 2005)

Legend:
[1] = Solid-state stability under normal storage conditions; assay type: physicochemical; details: typically, but not limited to, temperatures of about 20° C. to about 30° C., relative humidity of about 30% to about 60%
[2] = Solid-state form conversion under crushing or compressing; assay type: physicochemical

stability under normal storage conditions [1]	conversion into other known solid-state forms of pantoprazole sodium [2]	SMILES
stable	does not convert	COc1ccnc(C[S+]([O-])c2nc3ccc(OC(F)F)cc3[nH]2)c1OC (centres unmarked) [Form A1, 5-(difluoromethoxy)-2-[[(3,4-dimethoxy-2-pyridinyl)methyl]sulfinyl]-1H-benzimidazole]
stable	does not convert	COc1ccnc(C[S+]([O-])c2nc3ccc(OC(F)F)cc3[nH]2)c1OC (centres unmarked) [Form A2, 5-(difluoromethoxy)-2-[[(3,4-dimethoxy-2-pyridinyl)methyl]sulfinyl]-1H-benzimidazole]
stable	does not convert	COc1ccnc(C[S+]([O-])c2nc3ccc(OC(F)F)cc3[nH]2)c1OC (centres unmarked) [Form A3, 5-(difluoromethoxy)-2-[[(3,4-dimethoxy-2-pyridinyl)methyl]sulfinyl]-1H-benzimidazole]
stable	does not convert	COc1ccnc(C[S+]([O-])c2nc3ccc(OC(F)F)cc3[nH]2)c1OC (centres unmarked) [Form A4, 5-(difluoromethoxy)-2-[[(3,4-dimethoxy-2-pyridinyl)methyl]sulfinyl]-1H-benzimidazole]
